The source of these data is ChEMBL document CHEMBL1143235, “1-Hydroxy-2-pyridinone-based MMP inhibitors: synthesis and biological evaluation for the treatment of ischemic stroke” (Bioorg Med Chem Lett, 2008).

Activity calls are given as the source filed them. The calls are words filed in the database; no cut-off is given here.

The term IC50 denotes the concentration that gives 50% inhibition. The inhibition is the percentage by which the read-out fell short of the control. Read a high inhibition as a strong effect. By half-life is commonly meant the time in which the quantity being followed falls by half. The AUC is concentration integrated over time. A higher AUC goes with more exposure.

In series [1] the target is T1, Stromelysin-1 (Homo sapiens, UniProt P08254). The experiment in a line: Inhibition of MMP3.
Target sequence in this assay (P08254 whole entry): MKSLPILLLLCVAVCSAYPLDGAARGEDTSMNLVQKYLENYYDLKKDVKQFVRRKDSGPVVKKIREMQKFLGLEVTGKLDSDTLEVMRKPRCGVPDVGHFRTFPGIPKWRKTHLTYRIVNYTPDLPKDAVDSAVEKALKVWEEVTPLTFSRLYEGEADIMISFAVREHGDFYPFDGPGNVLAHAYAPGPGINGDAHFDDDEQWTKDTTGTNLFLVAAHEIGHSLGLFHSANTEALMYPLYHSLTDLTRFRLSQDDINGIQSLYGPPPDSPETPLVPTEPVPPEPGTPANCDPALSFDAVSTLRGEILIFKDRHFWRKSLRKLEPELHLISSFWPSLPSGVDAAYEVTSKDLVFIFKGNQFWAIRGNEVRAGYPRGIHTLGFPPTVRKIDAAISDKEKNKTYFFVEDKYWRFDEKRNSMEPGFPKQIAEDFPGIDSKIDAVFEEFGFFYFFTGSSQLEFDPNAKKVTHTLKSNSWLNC
In series [2] the target is T2, Interstitial collagenase (Homo sapiens, UniProt P03956).
T2 sequence (P03956 whole entry): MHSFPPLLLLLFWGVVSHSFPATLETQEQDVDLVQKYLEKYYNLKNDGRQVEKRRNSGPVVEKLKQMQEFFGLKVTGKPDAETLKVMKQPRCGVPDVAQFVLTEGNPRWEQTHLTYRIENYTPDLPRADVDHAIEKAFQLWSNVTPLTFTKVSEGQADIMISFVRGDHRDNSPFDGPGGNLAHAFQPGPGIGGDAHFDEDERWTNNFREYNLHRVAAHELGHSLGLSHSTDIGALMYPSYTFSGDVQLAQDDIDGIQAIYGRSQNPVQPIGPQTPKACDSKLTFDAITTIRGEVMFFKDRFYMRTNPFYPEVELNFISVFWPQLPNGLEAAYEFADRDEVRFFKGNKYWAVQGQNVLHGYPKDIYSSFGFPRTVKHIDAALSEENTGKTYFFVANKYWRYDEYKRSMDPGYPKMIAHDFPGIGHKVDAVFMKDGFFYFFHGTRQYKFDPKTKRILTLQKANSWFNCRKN
Description: Inhibition of MMP1.

Series [3] deals with Collagenase 3 (Homo sapiens, UniProt P45452). The experiment in a line: Inhibition of MMP13.
Series [4] has as its target T3, 72 kDa type IV collagenase (Homo sapiens, UniProt P08253). Description: Inhibition of MMP2.
Target sequence in this assay (P08253 whole entry): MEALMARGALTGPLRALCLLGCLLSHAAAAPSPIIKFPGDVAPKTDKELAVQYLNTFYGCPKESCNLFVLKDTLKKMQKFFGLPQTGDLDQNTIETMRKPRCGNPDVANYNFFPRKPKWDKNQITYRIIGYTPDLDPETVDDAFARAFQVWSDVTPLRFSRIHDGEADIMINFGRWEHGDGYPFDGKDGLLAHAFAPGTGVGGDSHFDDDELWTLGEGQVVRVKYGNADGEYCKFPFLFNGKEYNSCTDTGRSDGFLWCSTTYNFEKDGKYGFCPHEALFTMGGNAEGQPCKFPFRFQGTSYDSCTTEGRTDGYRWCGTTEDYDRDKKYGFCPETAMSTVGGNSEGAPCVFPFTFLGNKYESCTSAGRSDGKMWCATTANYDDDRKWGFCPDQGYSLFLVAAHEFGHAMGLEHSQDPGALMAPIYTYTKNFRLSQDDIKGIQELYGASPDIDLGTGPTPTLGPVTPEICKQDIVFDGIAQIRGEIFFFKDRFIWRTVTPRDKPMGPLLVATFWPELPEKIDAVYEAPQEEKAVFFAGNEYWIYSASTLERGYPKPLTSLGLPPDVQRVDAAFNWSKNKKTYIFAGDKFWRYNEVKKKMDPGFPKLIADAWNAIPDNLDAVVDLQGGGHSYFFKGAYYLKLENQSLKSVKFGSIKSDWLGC
For series [5], the target named is T4, Matrix metalloproteinase-9 (Homo sapiens, UniProt P14780). The experiment in a line: Inhibition of MMP9.
The target in series [6] is T1, Stromelysin-1. Description: Inhibition of MMP3 at 100 uM.
Target sequence in this assay (P08254 100-477 limits assumed): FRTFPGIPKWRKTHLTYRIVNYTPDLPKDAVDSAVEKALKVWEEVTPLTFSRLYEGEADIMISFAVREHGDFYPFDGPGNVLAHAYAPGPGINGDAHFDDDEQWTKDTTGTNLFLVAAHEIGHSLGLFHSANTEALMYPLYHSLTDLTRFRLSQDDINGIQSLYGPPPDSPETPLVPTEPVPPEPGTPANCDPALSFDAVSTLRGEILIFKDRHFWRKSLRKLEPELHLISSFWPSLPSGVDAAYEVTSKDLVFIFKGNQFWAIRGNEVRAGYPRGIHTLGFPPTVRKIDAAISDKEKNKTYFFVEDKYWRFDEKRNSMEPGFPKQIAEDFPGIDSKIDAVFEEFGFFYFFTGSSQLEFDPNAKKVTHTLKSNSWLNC
Series [7] deals with T4, Matrix metalloproteinase-9. Description: Inhibition of MMP9 at 100 uM.
Series [8] deals with T3, 72 kDa type IV collagenase. The note with it: 100 uM.
Target sequence in this assay (P08253 110-660 limits assumed): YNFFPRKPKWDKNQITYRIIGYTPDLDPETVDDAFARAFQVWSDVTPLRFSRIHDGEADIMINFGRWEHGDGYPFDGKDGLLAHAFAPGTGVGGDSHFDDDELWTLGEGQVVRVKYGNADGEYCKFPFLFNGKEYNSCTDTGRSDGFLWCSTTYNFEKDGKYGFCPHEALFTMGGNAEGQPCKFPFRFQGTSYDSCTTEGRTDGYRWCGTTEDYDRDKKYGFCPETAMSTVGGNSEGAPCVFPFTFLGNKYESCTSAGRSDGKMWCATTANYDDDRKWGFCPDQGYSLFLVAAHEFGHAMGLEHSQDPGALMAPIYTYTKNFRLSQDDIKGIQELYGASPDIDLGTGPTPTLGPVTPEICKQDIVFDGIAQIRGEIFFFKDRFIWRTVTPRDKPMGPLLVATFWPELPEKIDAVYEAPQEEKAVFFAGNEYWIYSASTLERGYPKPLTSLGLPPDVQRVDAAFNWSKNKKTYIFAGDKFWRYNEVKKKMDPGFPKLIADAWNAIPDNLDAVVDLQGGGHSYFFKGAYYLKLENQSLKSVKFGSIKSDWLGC
Description: Inhibition of MMP2 at 100 uM
The nature of series [9]: Drug level in rat at 2 mg/kg, iv. Conditions: in vivo. The format is ADME, organism-based. Also noted: dose 2 mg/kg, route intravenous.
Series [10] in a line: Apparent elimination half life in rat at 2 mg/kg, iv. It is filed as ADME, organism-based. Also noted: dose 2 mg/kg, route intravenous. The note with it: in vivo.
Series [11] concerns Rattus norvegicus. Description: AUC in rat at 2 mg/kg, iv. It is filed as ADME, organism-based, Plasma. Also noted: dose 2 mg/kg, route intravenous. The note with it: in vivo.
For series [12], the system named is Mus musculus. Description: Reduction of focal ischemia-induced brain edema in C57 Black/6 mouse at 6 mg/kg, iv after 2 hrs by wet/dry method. The format is functional, organism-based. Also noted: dose 6 mg/kg.
The nature of series [13]: Volume of distribution at steady state in rat at 2 mg/kg, iv. Also noted: dose 2 mg/kg, route intravenous. The note with it: in vivo, read-out: Vdss. It is filed as ADME, organism-based.
Series [14] can be described thus: Plasma concentration in mouse at 10 mg/kg, po after 1 hr.

T4 sequence (P14780 whole entry): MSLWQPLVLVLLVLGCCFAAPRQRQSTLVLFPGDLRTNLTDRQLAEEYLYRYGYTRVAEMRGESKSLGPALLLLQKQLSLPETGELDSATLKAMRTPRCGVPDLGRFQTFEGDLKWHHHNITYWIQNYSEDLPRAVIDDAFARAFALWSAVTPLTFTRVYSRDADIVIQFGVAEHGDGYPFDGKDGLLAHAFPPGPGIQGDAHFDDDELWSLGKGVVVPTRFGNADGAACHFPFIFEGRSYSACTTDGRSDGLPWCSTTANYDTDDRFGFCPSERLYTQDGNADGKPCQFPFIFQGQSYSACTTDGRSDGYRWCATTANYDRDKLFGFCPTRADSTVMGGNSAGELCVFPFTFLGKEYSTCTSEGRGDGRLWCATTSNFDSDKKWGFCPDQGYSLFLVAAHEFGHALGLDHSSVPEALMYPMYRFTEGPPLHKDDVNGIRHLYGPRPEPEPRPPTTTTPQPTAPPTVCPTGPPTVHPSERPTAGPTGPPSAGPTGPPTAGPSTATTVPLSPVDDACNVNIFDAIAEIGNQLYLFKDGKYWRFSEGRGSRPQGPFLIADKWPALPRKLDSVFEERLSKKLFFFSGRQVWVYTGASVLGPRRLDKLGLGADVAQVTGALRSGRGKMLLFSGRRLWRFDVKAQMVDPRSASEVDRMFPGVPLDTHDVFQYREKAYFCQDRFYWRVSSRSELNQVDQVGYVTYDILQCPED

For the compound `O=c1c(N(CCN2CCOCC2)S(=O)(=O)c2ccc(Oc3ccc(Cl)cc3)cc2)cccn1O`, the results for the IC50 in series [1], in [2] and in series [3] were 62.9 nM, over 1000 nM and 4 nM, respectively.
Turning to `CN(c1cccn(O)c1=O)S(=O)(=O)c1ccc(Oc2ccccc2)cc1`, the IC50 turned out to be 8.3 nM in series [4] and 5 nM in [5].
Taken in the same sequence, the figures for `CCN(c1cccn(O)c1=O)S(=O)(=O)c1ccc(Oc2ccccc2)cc1` were 6.5 nM and 3.6 nM.
For `COc1ccc(Oc2ccc(S(=O)(=O)N(C)c3cccn(O)c3=O)cc2)cc1`, the IC50 in series [1] is 79.1 nM; in series [2], over 1000 nM; in series [3], 6.8 nM.
For `CC(C)N(c1cccn(O)c1=O)S(=O)(=O)c1ccc(Oc2ccccc2)cc1`, the IC50 came out at 41 nM in series [4] and 57.5 nM in series [5].
Turning to `Cc1cc(=O)c(O)c(C(=O)NCc2ccc(-c3ccccc3)cc2)o1`, the inhibition in series [6], in series [7] and in series [8] was 34% each time.
In the case of `Cc1ccc(Oc2ccc(S(=O)(=O)N(C)c3cccn(O)c3=O)cc2)cc1`, the IC50 in series [4] came to 6.1 nM; in [5], 4.4 nM.
Consider `CN(c1cccn(O)c1=O)S(=O)(=O)c1ccc(Oc2ccc(Cl)cc2)cc1`, for which the IC50 in series [4] was 5 nM; in [1] it was 56.5 nM; in [5], 2.4 nM; in series [2], over 1000 nM; in [3], 2.5 nM. Moreover, in series [9], the C0 was 8.4 µM. Besides, in series [10], the half-life is 47 h. In [11], this compound returned an AUC of 179 µg·h/mL. Besides, the outcome in series [12] was Active. In addition, in series [13], the Vd was 1.75 L/kg. This compound gave a concentration at 1 h in series [14] of 34 µM.
In turn, `CN(c1cccn(O)c1=O)S(=O)(=O)c1ccc(Oc2ccc(OC(F)(F)F)cc2)cc1` displayed an IC50 in series [5] of 1.8 nM.
